The conditions of this data set: Liquid, Closed cell (Static) method.

Numbers after ± are expanded uncertainties.

In general, vapor or sublimation pressure refers to the pressure of vapour in equilibrium with the condensed phase. As for `F/C=C\C(F)(F)F` [(Z)-1,3,3,3-tetrafluoro-1-propene], the “vapor or sublimation pressure” value runs as follows: (353.17 K) 858.3 ± 1.4 kPa; (373.14 K) 1347.5 ± 2.1 kPa; (393.12 K) 2023.7 ± 3.2 kPa; (413.14 K) 2940.4 ± 4.6 kPa.

(Values after the NIST ThermoML archive (doi:10.1021/acs.jced.7b00263).)
